Data published in paper PMC5931107, “Clinical pharmacodynamic/exposure characterisation of the multikinase inhibitor ilorasertib (ABT-348) in a phase 1 dose-escalation trial” (British Journal of Cancer, 2018).

Key:
[1] = system: TEL:VEGFR1 catalytic domain fusion; design: method as in PMID 22935731; settings: BaF3 cells expressing TEL:VEGFR1, proliferation as surrogate readout; read-out: Cellular PD marker IC50 (95% confidence limits); cited from earlier work
Aurora B (Y156H) = system: Aurora B (Y156H); design: method as in PMID 22935731; settings: Y156H mutant, 1 mM ATP; read-out: Biochemical IC50 (95% confidence limits); cited from earlier work
PDGFR-α = system: PDGFR-α; design: method as in PMID 22935731; settings: 1 mM ATP; read-out: Biochemical IC50 (95% confidence limits); cited from earlier work
[2] = Safety: treatment-emergent adverse events (CTCAE v4.0), phase 1 trial; format: in vivo, human
Method: Safety was assessed on the basis of AEs, physical examination, vital signs, electrocardiograms, multiple-gated acquisition scans, and clinical laboratory test assessments. AEs were graded using National Cancer Institute CTCAE version 4.0.
Descriptive statistics were used for demographic variables. The numbers and percentages of patients with treatment-emergent AEs (TEAEs) were tabulated using the Medical Dictionary for Regulatory Activities version 16.0 system organ class and preferred term, and further classified according to CTCAE version 4.0 criteria. The safety data set included all patients who received one or more doses of ilorasertib. The pharmacokinetic data set included all patients who received one or more doses of ilorasertib and had one or more pharmacokinetic samples. Values for pharmacokinetic parameters were determined using non-compartmental methods, with data analysed separately for each arm. A repeated measures analysis was performed for Tmax and dose-normalised Cmax, AUCt, and AUC∞. The model included random effects for patient and fixed effects for dose level, day, and the interaction of dose level and day. To assess effects of exposure on pharmacodynamic biomarkers, Cmax was employed as the directly measured marker of exposure for the rapid changes in DBP and PlGF pre-steady-state, while AUC∞ reflected exposure variability at the time of post-multiple-dose skin biopsy. Descriptive statistics were used to summarise ECOG performance status. The efficacy data set included all patients who received one or more doses of ilorasertib.

VEGFR2 = system: VEGFR2; design: method as in PMID 22935731; settings: cited from earlier work
FLT-3 = system: FLT-3; design: method as in PMID 22935731; settings: 1 mM ATP; read-out: Biochemical IC50 (95% confidence limits); cited from earlier work

## Nc1ncc(-c2cnn(CCO)c2)c2scc(-c3ccc(NC(=O)Nc4cccc(F)c4)cc3)c12 [ilorasertib, Ilorasertib]
[1]
  IC50: […]
Aurora B (Y156H)
  IC50: […]
PDGFR-α
  IC50: […]
[2]; Arm I PO QD, N = 23
  Neutropenia, grade 3 or 4 TEAE, patients n (%): 0
[2]; Arm II PO BID, N = 28
  Any grade AE, patients n (%): […]
  Constipation, any grade TEAE, patients n (%): […]
  Decreased appetite, any grade TEAE, patients n (%): […]
  Diarrhoea, any grade TEAE, patients n (%): […]
  Diarrhoea, grade 3 or 4 TEAE, patients n (%): […]
  Dyspnoea, any grade TEAE, patients n (%): […]
  Fatigue, any grade TEAE, patients n (%): […]
  Grade 3 or 4 AE, patients n (%): […]
  Headache, any grade TEAE, patients n (%): […]
  Hypertension, any grade TEAE, patients n (%): […]
  Hypertension, grade 3 or 4 TEAE, patients n (%): […]
  Hypokalaemia, any grade TEAE, patients n (%): […]
  Hypomagnesaemia, any grade TEAE, patients n (%): […]
  Nausea, any grade TEAE, patients n (%): […]
  Neutropenia, grade 3 or 4 TEAE, patients n (%): […]
  Thrombocytopenia, any grade TEAE, patients n (%): […]
  Urinary tract infection, any grade TEAE, patients n (%): […]
  Vomiting, any grade TEAE, patients n (%): […]
[2]; Arm III i.v., N = 7
  Diarrhoea, grade 3 or 4 TEAE, patients n (%): 0
  Headache, any grade TEAE, patients n (%): 0
  Hypokalaemia, any grade TEAE, patients n (%): 0
  Hypomagnesaemia, any grade TEAE, patients n (%): 0
  Neutropenia, grade 3 or 4 TEAE, patients n (%): 0
  Thrombocytopenia, any grade TEAE, patients n (%): 0
[2]; Total, N = 58
  Any grade AE, patients n (%): 56 (97)
  Fatigue, any grade TEAE, patients n (%): 28 (48)
[2]; all 58 patients
  Patients with TEAEs: 97%
  Patients with TEAEs considered possibly or probably related to ilorasertib: 66%
  Patients with treatment-emergent serious AEs: 36%
  Patients with treatment-related grade 3 or 4 TEAEs: 28%
  TEAE fatigue, patients: 48%
  Treatment-related TEAE decreased appetite, patients: 19%
  Treatment-related TEAE fatigue, patients: 24%
[2]; in vivo
  Relatedness of deaths to ilorasertib (investigator): none of the deaths were considered related to ilorasertib
[2]; one patient in Arm I, two in Arm II, within 30 days of discontinuing the study
  Deaths resulting from TEAEs: three patients
VEGFR2; VEGFR2 cellular phosphorylation, ligand stimulated, read-out: Cellular PD marker IC50 (95% confidence limits)
  IC50: […]
VEGFR2; cellular assays
  Potency of VEGFR2 inhibition relative to Aurora kinase B: two- to five-fold more potent
FLT-3
  IC50: […]
